Source: patent publication US20220347187A1, “HETEROCYCLIC COMPOUNDS AS KINASE INHIBITORS” (Nuvation Bio Inc., priority 2019, published 2022)

How the values were obtained:
[1] = target: T1, CDK4 (Homo sapiens, UniProt P11802); assay: In vitro kinase inhibition, luminescence (ADP-Glo) with retinoblastoma as substrate; format: biochemical; settings: ATP 25 μM, 2H at room temperature
T1 construct: purchased Invitrogen PR8064 A
Procedure: (§1) IC50 values of compounds against CDK4 and CDK6 were determined by luminescence using retinoblastoma as substrate. Kinase assays were performed in kinase buffer (#PV6135, Invitrogen, Life Technologies Grand Island. N.Y.) where total reaction volume was […] in 96-well half area white plates (#3693, Costar). One microliter of 25× test compounds at specific concentrations (e.g., final concentration range: 0.1 nM-200 nM) was mixed with 10 μL of 2.5× kinase (5 nM, CDK4 #PR8064 A and CDK6 #PR8422B, Invitrogen) solution and 14 μL of 4× mixed solution with retinoblastoma (1 μM, #12-439, EMD Millipore. Hayward, Calif.) and ATP (25 μM, #V7038, Promega, Madison, Wis.). The plates were covered and incubated for 2H at room temperature. At the end of incubation, 25 μL of stop solution—ADP Glo reagent (#V7002. Promega) was added. After incubation for 45 min at room temperature, 50 μL of detection reagent (##V7002, Promega) was added. Readings were taken at 15 min and 45 min incubation after detection reagent was added in a Synergy Neo Plate reader (BioTek, Winooski, Vt.) at single excitation of 340 nm and Dual emission at 495 nm and 520 nm respectively. The following equations were used in the CDK4 and CDK6 assay data analysis. Percent inhibition (100-% activity) was fitted to the “four-parameter logistic model” in XLfit for determination of IC50 values.
(§2) Percent conversion of enzyme=100−{(RLUNo Drug−No enzyme*100)/RLUNo drug+Enzyme} Equation 1:
(§3) Percent conversion at each data point=100−{(RLUAverage(Drug+enzyme)*100)/RLUNo drug+Enzyme} Equation 2:
(§4) Percent Inhibition=100*(% Conversioneach data point/% ConversionEnzyme) Equation 3: […]

[2] = target: T2, CDK6 (Homo sapiens, UniProt Q00534); assay: as above; format: biochemical; settings: ATP 25 μM, 2H at room temperature
T2 construct: purchased Invitrogen PR8422B
T2 sequence (Q00534 whole entry): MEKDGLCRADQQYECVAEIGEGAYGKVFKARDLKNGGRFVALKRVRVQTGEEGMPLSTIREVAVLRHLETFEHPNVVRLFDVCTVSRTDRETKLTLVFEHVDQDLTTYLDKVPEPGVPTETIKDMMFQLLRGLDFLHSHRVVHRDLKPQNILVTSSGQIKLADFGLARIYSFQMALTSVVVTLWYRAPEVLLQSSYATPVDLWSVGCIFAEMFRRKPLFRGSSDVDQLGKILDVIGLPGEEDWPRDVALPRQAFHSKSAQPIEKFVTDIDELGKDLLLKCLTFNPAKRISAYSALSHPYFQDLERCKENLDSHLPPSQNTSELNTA
T2 sequence (P24385 whole entry partner): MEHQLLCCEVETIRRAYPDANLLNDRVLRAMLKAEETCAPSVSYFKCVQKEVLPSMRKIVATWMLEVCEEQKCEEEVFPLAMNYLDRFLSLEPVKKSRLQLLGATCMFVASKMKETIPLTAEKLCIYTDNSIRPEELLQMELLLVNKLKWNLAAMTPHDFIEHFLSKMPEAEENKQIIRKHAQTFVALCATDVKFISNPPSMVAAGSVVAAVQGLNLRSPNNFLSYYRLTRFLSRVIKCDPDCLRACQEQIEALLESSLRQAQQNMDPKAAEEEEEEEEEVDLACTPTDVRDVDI
Procedure: as §1, §2, §3, §4

[3] = system: DU4475; assay: Cancer cell proliferation assay as a single agent (cell viability); format: cell-based; settings: Homo sapiens, DU-4475; Table 4; Rb negative breast carcinoma; 144H treatment
Procedure: (§5) The effects of test compounds were studied in two breast cancer cell lines of different subtype. The cancer cells (Table 3) were harvested during the logarithmic growth period and counted. Cell concentrations were adjusted to the appropriate number with respective medium and 90 μL cell suspensions were added to 96-well plates. After cells were seeded, the plates were shaken gently to distribute cells evenly and incubated at 37° C., 5% CO2 on day 1.
(§6) Cells were treated with test compounds at 7 to 9 concentrations within a desired concentration range (e.g. 1.1 nM-10 μM) on day 2 by series diluting the test compound stock solution (10 mM in DMSO) with culture medium. Treatment duration was 144H (with a medium change at 72H) for both MCF-7 and DU4475 cells. Cell viability was assessed by Cell Titer-Glo® as recommended by Promega (Cat. No.: G7572), or by resazurin assay (Sigma Aldrich, Cat. No.: R7017) post treatment.
(§7) Cell viability data were plotted using GraphPad Prism (GraphPad Software, Inc., San Diego, Calif.). In addition, a nonlinear regression model with a sigmoidal dose response and variable slope within GraphPad Prism was used to calculate the IC50 value of individual test compounds.

[4] = system: MCF-7; assay: as above; format: cell-based; settings: Homo sapiens, MCF7
Procedure: as §5, §6, §7

[5] = target: T3, CDK1 (cyclin B) (Homo sapiens, UniProt P06493); assay: Z'-LYTE kinase assay; format: biochemical; settings: ATP 34 μM, 60 minutes
T3 construct: purchased Invitrogen Life Technologies (screening service)
T3 sequence (P06493 whole entry): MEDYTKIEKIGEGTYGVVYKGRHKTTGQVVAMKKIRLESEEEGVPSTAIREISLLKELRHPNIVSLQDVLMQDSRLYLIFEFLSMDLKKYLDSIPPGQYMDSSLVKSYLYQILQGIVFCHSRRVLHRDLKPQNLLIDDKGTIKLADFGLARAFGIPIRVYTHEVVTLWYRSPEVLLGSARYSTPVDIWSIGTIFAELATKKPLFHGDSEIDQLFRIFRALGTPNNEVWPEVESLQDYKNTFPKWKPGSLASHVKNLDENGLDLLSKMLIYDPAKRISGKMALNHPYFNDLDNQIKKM
T3 sequence (P14635 whole entry partner): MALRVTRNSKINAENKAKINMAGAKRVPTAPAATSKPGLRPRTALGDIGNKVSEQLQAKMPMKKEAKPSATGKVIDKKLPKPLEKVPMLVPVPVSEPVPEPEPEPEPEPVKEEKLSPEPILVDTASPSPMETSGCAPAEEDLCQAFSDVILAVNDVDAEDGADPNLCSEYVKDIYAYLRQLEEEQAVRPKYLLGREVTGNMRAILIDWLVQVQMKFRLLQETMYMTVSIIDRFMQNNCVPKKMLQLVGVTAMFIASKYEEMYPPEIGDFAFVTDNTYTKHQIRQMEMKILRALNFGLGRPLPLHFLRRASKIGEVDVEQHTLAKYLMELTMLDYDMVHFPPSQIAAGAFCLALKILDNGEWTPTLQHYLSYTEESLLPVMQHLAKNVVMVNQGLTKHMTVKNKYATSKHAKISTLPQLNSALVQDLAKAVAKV
Procedure: IC50 values of compounds against CDK1 (cyclin B) were determined by Z′-LYTE™. These screening assays were performed at Invitrogen Life Technologies (Grand Island, N.Y.) on a low volume NBS, black 384-well plate (#4514, Corning), 0.1 μL of 100× test compound in 100% DMSO (at specific solutions) was mixed with 2.4 μL of Kinase Buffer (50 mM HEPES pH 7.5, 0.01% BRIJ-35, 10 mM MgCl2, 1 mM EGTA), 5 μL of 2× Kinase (3.5-46.4 ng CDK1/cyclin B)/Peptide (2 μM Ser/Thr 18), and 2.5 μL of 4×ATP solution (34 μM). The plates were shaken for 30 seconds, and incubated for 60 minutes at room temperature. Development Reagent Solution (5 μL of 1:1024 dilution) was added to the plates followed with another 30-second plate shake, and the plates were further incubated at room temperature for one hour. The plates were read on fluorescence plate reader with Dual emission at 445 nm and 520 nm.
(§8) The following equations were used for Z′-LYTE™ Screening Assay Data Analysis. Percent inhibition (100-% activity) was fitted to the “four-parameter logistic model” in XLfit for determination of IC50 values.

[6] = target: T4, CDK2 (cyclin A) (Homo sapiens, UniProt P24941); assay: Z'-LYTE kinase assay; format: biochemical; settings: ATP 31 μM, 60 minutes
T4 construct: purchased Invitrogen Life Technologies (screening service)
Procedure: IC50 values of compounds against CDK2 (cyclin A) were determined by Z′-LYTE™. These screening assays were performed at Invitrogen Life Technologies (Grand Island, N.Y.) on a low volume NBS, black 384-well plate (#4514. Corning), 0.1 μL of 100× test compound in 100% DMSO (at specific solutions) was mixed with 2.4 μL of Kinase Buffer (50 mM HEPES pH 7.5, 0.01% BRIJ-35, 10 mM MgCl2, 1 mM EGTA), 5 μL of 2× Kinase (1.22-10.3 ng CDK2/cyclin A)/Peptide (2 μM Ser/Thr 12), and 2.5 μL of 4×ATP solution (31 μM). The plates were shaken for 30 seconds, and incubated for 60 minutes at room temperature. Development Reagent Solution (5 μL of 1:1024 dilution) was added to the plates followed with another 30-second plate shake and the plates were further incubated at room temperature for one hour. The plates were read on fluorescence plate reader with Dual emission at 445 nm and 520 nm.
as §8

[7] = target: T5, PI3Kδ (Homo sapiens, UniProt O00329); assay: PI3Kδ kinase assay (ADP-Glo, Reaction Biology Corporation); format: biochemical
T5 construct: purchased Reaction Biology Corporation (service assay)
T5 sequence (O00329 whole entry): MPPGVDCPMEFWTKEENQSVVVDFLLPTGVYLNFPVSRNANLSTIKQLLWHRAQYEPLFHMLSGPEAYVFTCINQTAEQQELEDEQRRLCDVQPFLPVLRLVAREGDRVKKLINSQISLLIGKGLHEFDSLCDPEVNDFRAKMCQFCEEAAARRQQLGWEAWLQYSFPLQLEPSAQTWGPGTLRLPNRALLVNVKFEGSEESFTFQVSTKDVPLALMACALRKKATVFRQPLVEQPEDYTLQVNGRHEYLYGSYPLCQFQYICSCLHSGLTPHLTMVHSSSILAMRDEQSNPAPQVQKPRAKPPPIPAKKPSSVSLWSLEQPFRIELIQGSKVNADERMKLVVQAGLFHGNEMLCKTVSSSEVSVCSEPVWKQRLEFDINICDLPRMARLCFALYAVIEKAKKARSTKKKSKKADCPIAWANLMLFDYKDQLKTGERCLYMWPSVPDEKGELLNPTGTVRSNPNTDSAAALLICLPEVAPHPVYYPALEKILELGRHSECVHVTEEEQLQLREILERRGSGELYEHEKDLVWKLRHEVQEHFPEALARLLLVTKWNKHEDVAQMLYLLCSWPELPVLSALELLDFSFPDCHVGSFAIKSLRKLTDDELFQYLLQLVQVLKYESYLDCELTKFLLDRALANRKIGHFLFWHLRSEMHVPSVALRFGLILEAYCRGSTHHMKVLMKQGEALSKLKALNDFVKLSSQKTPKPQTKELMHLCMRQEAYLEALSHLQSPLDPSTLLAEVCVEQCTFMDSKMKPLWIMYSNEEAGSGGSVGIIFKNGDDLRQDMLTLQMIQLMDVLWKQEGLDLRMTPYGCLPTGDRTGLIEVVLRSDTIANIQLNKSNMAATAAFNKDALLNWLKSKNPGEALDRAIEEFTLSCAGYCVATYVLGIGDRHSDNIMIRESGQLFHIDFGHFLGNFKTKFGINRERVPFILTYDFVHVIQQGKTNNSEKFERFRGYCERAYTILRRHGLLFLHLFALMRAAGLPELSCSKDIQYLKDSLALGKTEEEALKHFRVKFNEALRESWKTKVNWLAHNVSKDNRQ
T5 sequence (P27986 whole entry partner): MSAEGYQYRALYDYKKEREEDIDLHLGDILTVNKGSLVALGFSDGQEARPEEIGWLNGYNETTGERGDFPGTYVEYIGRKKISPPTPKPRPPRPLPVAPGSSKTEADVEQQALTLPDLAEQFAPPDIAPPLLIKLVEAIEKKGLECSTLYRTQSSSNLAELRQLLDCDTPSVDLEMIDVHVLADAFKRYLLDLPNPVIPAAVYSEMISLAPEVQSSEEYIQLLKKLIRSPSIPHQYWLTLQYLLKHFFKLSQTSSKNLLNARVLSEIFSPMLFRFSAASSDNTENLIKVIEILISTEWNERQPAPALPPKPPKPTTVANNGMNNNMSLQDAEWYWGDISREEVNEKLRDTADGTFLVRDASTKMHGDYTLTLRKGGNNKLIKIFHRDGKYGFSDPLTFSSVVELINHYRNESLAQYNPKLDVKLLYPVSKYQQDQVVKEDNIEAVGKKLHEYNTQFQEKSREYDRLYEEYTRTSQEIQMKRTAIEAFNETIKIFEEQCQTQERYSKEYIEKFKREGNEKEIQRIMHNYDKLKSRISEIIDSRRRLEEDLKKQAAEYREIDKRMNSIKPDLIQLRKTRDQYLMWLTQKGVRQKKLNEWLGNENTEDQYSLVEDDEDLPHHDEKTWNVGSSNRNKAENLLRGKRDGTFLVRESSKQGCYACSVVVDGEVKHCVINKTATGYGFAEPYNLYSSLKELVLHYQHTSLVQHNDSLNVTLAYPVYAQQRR
Procedure: IC50 values of compounds against the PI3KS kinase were determined by an assay performed by Reaction Biology Corporation (Malvern, Pa.). Briefly, this assay was conducted in buffer (Tris-HCl 40 mM (pH7.5), Orthovanadate 3 mM, MgCl2 20 mM, DTT 2 mM, CHAPS 0.05%, DMSO 1%). PI3K8 kinase was added to the reaction solution and mixed gently. The test compounds in 100% DMSO (at specific solutions) were mixed with the kinase reaction mixture to achieve the final compounds at pre-defined concentrations (e.g., range—0.5 nM to 100 μM) by Acoustic technology (Echo550; nanoliter range). After incubating for 10 min at room temp, ATP was added into the reaction mixture to initiate the reaction followed by a 30-min incubation at 30° C. After quenching the reaction with ADP-Glo reagent, the plates were incubated for 40 min. The Detection Mixture was added, and the plate was incubated for an additional 30 min. At the end of incubation, luminescence was measured. For data analysis, the luminescence was converted into μM ADP production based on ADP standard curves. The nonlinear regression to obtain the standard curve and IC50 values was performed using GraphPad Prism (GraphPad Software. Inc., San Diego, Calif.).

[8] = system: MCF-7-PR; assay: Cell viability in palbociclib-resistant cell line; format: cell-based
Procedure: as §6, §7
The effects of test compound in a palbociclib-resistant cell line and a parental, non-resistant cell line were compared. The palbociclib-resistant cell line (“MCF-7-PR”) was derived from the parental, non-resistant cell line (MCF-7 breast adenocarcinoma cells) by culture of cells over a period of three months in increasing concentrations of palbociclib, starting from about 350 nM and ending at about 850 nM, the final concentration at which they were then maintained in culture. […]

[9] = Table 4, Rb positive breast adenocarcinoma, 144H treatment

T1 sequence (P11802 whole entry): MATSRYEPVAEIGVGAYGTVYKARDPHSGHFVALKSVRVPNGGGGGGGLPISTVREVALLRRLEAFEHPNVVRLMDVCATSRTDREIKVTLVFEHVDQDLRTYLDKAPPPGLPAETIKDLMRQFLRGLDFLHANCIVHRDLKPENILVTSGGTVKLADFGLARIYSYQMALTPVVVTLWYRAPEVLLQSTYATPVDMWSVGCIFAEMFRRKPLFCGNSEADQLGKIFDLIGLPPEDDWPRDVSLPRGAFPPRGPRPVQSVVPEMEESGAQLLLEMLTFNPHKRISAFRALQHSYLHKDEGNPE
T1 sequence (P24385 whole entry partner): as the sequence (P24385 whole entry partner) above

| Compound | IC50 [1] [nM] | IC50 [2] [nM] | IC50 [3] [nM] | IC50 [4, 9] [nM] | IC50 [5] [nM] | IC50 [6] [nM] | IC50 [7] [nM] | IC50 ([4]; Table 5, parental, non-resistant cell line) [nM] | IC50 ([8]; Table 5, palbociclib-resistant cell line) [nM] | resistance to palbociclib compared to parental MCF-7 cells, as increase in cell viability IC50 ([8]; MCF-7-PR vs MCF-7) |
| --- | --- | --- | --- | --- | --- | --- | --- | --- | --- | --- |
| CC(C)N1CCOc2c(F)cc(-c3nc(Nc4cccc(N5CCCNCC5)c4)ncc3F)cc21 [Compound 1, N-(3-(1,4-diazepan-1-yl)phenyl)-5-fluoro-4-(8-fluoro-4-isopropyl-3,4-dihydro-2H-benzo[b][1,4]oxazin-6-yl)pyrimidin-2-amine] | 40 | 53 | 285 | 252 |  |  |  |  |  |  |
| CC(C)N1CCOc2c(F)cc(-c3nc(Nc4cc(N5CCCNCC5)ccn4)ncc3F)cc21 [Compound 2, N-(4-(1,4-diazepan-1-yl)pyridin-2-yl)-5-fluoro-4-(8-fluoro-4-isopropyl-3,4-dihydro-2H-benzo[b][1,4]oxazin-6-yl)pyrimidin-2-amine] | > 200 | > 200 | 1640 | 823 | 2800 | 1230 | > 50000 |  |  |  |
| CCN1CCC(COc2ccc(Nc3ncc(F)c(-c4cc(F)c5c(c4)N(C(C)C)CCO5)n3)nc2)CC1 [Compound 3, N-(5-((1-ethylpiperidin-4-yl)methoxy)pyridin-2-yl)-5-fluoro-4-(8-fluoro-4-isopropyl-3,4-dihydro-2H-benzo[b][1,4]oxazin-6-yl)pyrimidin-2-amine] | 5 | 6.5 | 655 | 60 | 1490 | 207 | > 50000 |  |  |  |
| CCN1CCC(COc2ccc(Nc3cc(-c4cc(F)c5c(c4)N(C(C)C)CCO5)c(F)cn3)nc2)CC1 [Compound 4, N-(5-((1-ethylpiperidin-4-yl)methoxy)pyridin-2-yl)-5-fluoro-4-(8-fluoro-4-isopropyl-3,4-dihydro-2H-benzo[b][1,4]oxazin-6-yl)pyridin-2-amine] | 7 | 12 | 275 | 215 | 200 | 75 | > 30200 |  |  |  |
| CC(C)N1CCOc2c(F)cc(-c3nc(NC4CCN(S(C)(=O)=O)CC4)ncc3F)cc21 [Compound 5, 5-fluoro-4-(8-fluoro-4-isopropyl-3,4-dihydro-2H-benzo[b][1,4]oxazin-6-yl)-N-(1-(methylsulfonyl)piperidin-4-yl)pyrimidin-2-amine] | 2 | 9 | 230 | 525 | < 1 | < 1 | > 36600 |  |  |  |
| Cc1nn(C2CCNCC2)cc1Nc1ncc(F)c(-c2cc(F)c3c(c2)N(C(C)C)CCO3)n1 [Compound 67, 5-fluoro-4-(8-fluoro-4-isopropyl-3,4-dihydro-2H-benzo[b][1,4]oxazin-6-yl)-N-(3-methyl-1-(piperidin-4-yl)-1H-pyrazol-4-yl)pyrimidin-2-amine] | 16 | 45 | 130 | 80 | 94 | 45 |  | 40 | 72 |  |
| CC(C)N1CCOc2c(F)cc(-c3nc(Nc4ccc(N5CCNC(=O)C5)cn4)ncc3F)cc21 [Compound 85, 4-(6-((5-fluoro-4-(8-fluoro-4-isopropyl-3,4-dihydro-2H-benzo[b][1,4]oxazin-6-yl)pyrimidin-2-yl)amino)pyridin-3-yl)piperazin-2-one] | 10 | 26 | 3610 | 392 | 4550 | 2470 |  |  |  |  |
| CC(C)N1CCOc2c(F)cc(-c3nc(Nc4ccc(N5CCN(C)C(=O)C5)cn4)ncc3F)cc21 [Compound 86, 4-(6-((5-fluoro-4-(8-fluoro-4-isopropyl-3,4-dihydro-2H-benzo[b][1,4]oxazin-6-yl)pyrimidin-2-yl)amino)pyridin-3-yl)-1-methylpiperazin-2-one] | 1 | 3 | 1140 | 160 | 1480 | 278 |  |  |  |  |
| CC(=O)c1c(C)c2cnc(Nc3ccc(N4CCNCC4)cn3)nc2n(C2CCCC2)c1=O [palbociclib, reference compound] |  |  |  |  |  |  |  |  |  | at least 5 fold |
